The text below walks through data of EP0727211A1, “Use of src SH2 specific compounds to treat a bone resorption disease” (SMITHKLINE BEECHAM CORPORATION, priority 1995, dated 1996).

Usually Ki stands for the equilibrium dissociation constant of an inhibitor or competing ligand from its target. As usually defined, the IC50 is the concentration at which inhibition is half-maximal. Low values mean inhibition by little substance, high ones a need for much substance.

The target in one test is T1, human p85 SH2 domain (Homo sapiens, UniProt P27986).
T1 construct: SH2 domain of human p85 (amino acids 321-440); made in house; host or cells: E. coli (pGEX-3X)
T1 sequence (P27986 321-440): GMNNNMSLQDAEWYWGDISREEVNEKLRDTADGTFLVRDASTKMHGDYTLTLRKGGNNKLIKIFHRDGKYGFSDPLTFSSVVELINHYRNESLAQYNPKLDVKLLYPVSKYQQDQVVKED
Kind of test: SH2 domain / pY peptide binding assay (ELISA-based, 96 well plate), p85 SH2. Particulars: for Ki: Ki calculated from IC50 by the expanded equation, Table II; for IC50: cloned human SH2 domain fusion protein, 0.1 uM biotinylated pY peptide, Table I. As to the method:
(§1) The inhibitory activity of compounds at the different human SH2 domains was determined in vitro using SH2 domains expressed as fusion proteins in E. coli. The SH2 domains used herein were the human forms of the src SH2 domain, Grb2 SH2 domain, lck SH2 domain, fyn SH2 domain, SH-PTP2 SH2 domain, p85 SH2 domain and hcp SH2 domain.
(§2) Fusion proteins having the structure GST-X-SH2 were prepared as described in the GST gene fusion kit system available from Pharmacia (New Jersey). GST is the tagging sequence glutathione s-transferase epitope (SEQ ID NO: 8) for fyn, Grb2 and SH-PTP2 and is the tagging sequence glutathione s-transferase epitope (SEQ ID NO: 9) for p85. SH2 refers to the SH2 domains of fyn, Grb2, p85 and SH-PTP2 which were expressed and purified using glutathione Sepharose 4B (Pharmacia) according to "Current Protocols in Molecular Biology", ed. FM Ausubel et al., pub. John Wiley and Sons, Inc., (1995), p 16.7.1. X is an appropriate linker, preferably of 6 to 21 base pairs, used to keep the SH2 construct in frame and complement cloning. As such, the sequence of X is not critical. One skilled in the art can readily construct the appropriate linker. The DNA sequence encoding each GST-X-SH2 fusion protein was designed such that the indicated restriction sites (BamH1 and EcoRI) flank the SH2 region. The vector used in the instant experiments was the E. coli expression vector pGEX-2T (Pharmacia) for fyn, Grb2 and SH-PTP2, and pGEX-3X (Pharmacia) for p85. Each of these vectors result in SH2 constructs having additional C-terminal amino acids as described below.
Human p85 SH2 domain: The sequence encoding the SH2 domain of human p85 (amino acids 321-440) (Skolnik, E. et al., Cell 65, 83-90 (1991)) was cloned into the BamHI and EcoRI sites of the expression vector pGEX-3X. The SH2 domain including the additional C-terminal amino acids asparagine-serine-serine (SEQ ID NO: 11)was cloned by PCR techniques known to those skilled in the art to yield the expressed fusion protein GST-X-p85.
(§3) The binding assays for the SH2 domains and pY peptides were performed in an ELISA-based 96 well plate assay. In Millipore 96 well filter plates, hydrophilic Durapore® (pore size 0.65um Cat. No. MADVN6550), was added 2 ul (50% suspension) of Protein-G Sepharose (available from Pharmacia of N.J. Cat. No. 17-0618-01) and either 2 ul of 2 mg/ml of MAB178. (for gp120/SH2 domain fusion proteins src, lck and hcp) or 0.25 ul of anti-GST polyclonal antisera (available from Pharmacia of N.J.) (for GST/SH2 domain fusion proteins fyn, Grb2, p85 and SH-PTP2). 10 pmol of the subject SH2 domain fusion protein were added to their respective wells. The volume was brought to 100 ul with TBS-T (tris buffered saline plus 0.05% tween-20), incubated and shaken at room trmperature for 1 hr. then washed 1x with TBS-T (4°C). 90 ul of TBS-T were then added to each well. Specific pY biotinylated peptides were diluted to a concentration of 1.0 uM in TBS-T (these peptides can be obtained from Bachem Bioscience of Pennsylvania, Genosys Biotechnologies of Texas and California Peptide Research of California). 10 ul was aliquoted per well to yield a final concentration of 0.1 uM (approx, the Kd for each SH2 domain/peptide pair) and a final volume of 100 ul. The assay plates were incubated until equilibrium binding was attained (3 hr at 4°C with shaking). The assay plates were washed 2 X per well TBS-T (4°C), then 100 ul of SABC (Strepavidin biotinylated horseradish peroxidase complex, available from the Zymed corporation of California cat. no. 93-0043, 1 drop reagent A (streptavidin) and 1 drop of reagent B (AH-biotin conjugated-horseradish peroxidase) per 10 ml of TBS-T, incubated at 37°C for 30 minutes, then cooled to 4°C) was added per well, then incubated at 4°C for 30-60 minutes. The plates were then washed 4 X with TBS-T (4°C) (250 ul/well)/wash). 100 ul of 1 mg/ml OPD (o-phenyldiamine, Sigma Chemical Corporation, St. Louis Missouri) in Citrate Buffer was added per well. […]

In a further test the target is T2, human fyn SH2 domain (Homo sapiens, UniProt P06241).
T2 construct: SH2 domain of human fyn (amino acids 143-252); made in house; host or cells: E. coli (pGEX-2T)
T2 sequence (P06241 143-252): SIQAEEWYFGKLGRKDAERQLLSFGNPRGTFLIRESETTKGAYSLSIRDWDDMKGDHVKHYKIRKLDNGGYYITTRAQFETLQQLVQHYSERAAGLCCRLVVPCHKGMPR
Kind of test: SH2 domain / pY peptide binding assay (ELISA-based, 96 well plate), fyn SH2. Particulars: for Ki: Ki calculated from IC50 by the expanded equation, Table II; for IC50: cloned human SH2 domain fusion protein, 0.1 uM biotinylated pY peptide, Table I. As to the method:
as §1, §2
The sequence encoding the SH2 domain of human fyn (amino acids 143-252) (Yamamoto, T. et al. Proc. Natl. Acad. Sci. USA 83, 5459-5463 (1986)) was cloned into the BamHI and EcoRI sites of the expression vector pGEX-2T. The SH2 domain including the additional C-terminal amino acids leucine-threonine-asparagine-serine-serine (SEQ ID NO: 10) was cloned by PCR techniques known to those skilled in the art to yield the expressed fusion protein GST-X-fyn.
as §3, with “ul/well)/wash).” for “ul/well)/wash). 100 ul of 1 mg/ml OPD (o-phenyldiamine, Sigma Chemical Corporation, St. Louis Missouri) in Citrate Buffer was added per well.”

For the compound “4-acetamido-benzamido-trans-4-methyl-cyclohexyl-N-1-(amino-R-2-(methoxy methyl)-pyrrolidine) carboxamide [Compound 8]”, the Ki at human p85 SH2 domain and at human fyn SH2 domain was over 1000 µM each time. The IC50 at human p85 SH2 domain and on human fyn SH2 domain was over 300 µM each time.
`Cc1nnc(SCC2=C(C(=O)O)N3C(=O)[C@@H](NC(=O)C(N)c4ccc(C(=O)O)cc4)[C@H]3SC2)s1` (stereo partly drawn) [Compound 1, 7-[D,L-α-Amino-α-(4-carboxyphenyl)acetamido]-3-[2-(5-methyl-1,3,4-thiadiazolyl)thiomethyl]Δ^3-cephem-4-carboxylic Acid]: on human p85 SH2 domain, the Ki was over 1000 µM and the IC50 was over 300 µM. Besides, at human fyn SH2 domain, the Ki was over 1000 µM and the IC50 is over 300 µM.
Take `N[C@@H](Cc1cc(Br)c(Oc2ccc(O)c(Cc3ccc(O)nn3)c2)c(Br)c1)C(=O)O` [Compound 2, L-3,5-Dibromo-3'-(6-oxo-3(1H)-pyridazinylmethyl)-thyronine]: at human p85 SH2 domain, the Ki was over 1000 µM and the IC50 is over 300 µM. At human fyn SH2 domain, the Ki is over 1000 µM and the IC50 was over 300 µM.
Regarding `Cc1nc2sc3c(c2c2[nH][nH]c(=O)c12)CCC1(C3)OCCO1` [Compound 3, 8,8-Ethylenedioxy-2,3,7,8,9,10-hexahydro-4-methyl-1H-benzo[b]thieno[2,3-b]pyrazolo[3,4-d]pyridin-3-one], at human p85 SH2 domain, the Ki was over 1000 µM and the IC50 is over 300 µM. In addition, on human fyn SH2 domain, the Ki is over 1000 µM and the IC50 is over 300 µM.
As for `Cc1ccc(C(=O)c2ccc(C(=O)c3ccc(CC=O)cc3)cc2)cc1` [Compound 4, 4-[4-(4-Methylbenzoyl)benzoyl]phenylacetaldehyde], the Ki on human p85 SH2 domain and at human fyn SH2 domain was over 1000 µM each time. The half-maximal inhibitory concentration (IC50) at human p85 SH2 domain and at human fyn SH2 domain was over 300 µM each time.
As for `Cc1nc2sc3c(c2c2c1c(=O)[nH]n2C)CCC1(C3)OCCO1` [Compound 5, 1,4-Dimethyl-8,8-ethylenedioxy-2,3,7,8,9,10-hexahydro-1H-benzo[b]thieno[2,3-b]pyrazolo[3,4-d]pyridin-3-one], on human p85 SH2 domain, the inhibitory constant (Ki) is over 1000 µM and the IC50 was over 300 µM. Further, at human fyn SH2 domain, the Ki was over 1000 µM and the IC50 was over 300 µM.
`CCCCCCNC(=O)[C@H]1CC[C@H](CNC(=O)c2ccc([N+](=O)[O-])cc2)CC1` [Compound 7, 4-nitro-benzamido-trans-4-methyl-cyclohexyl-N-hexyl carboxamide]: at human p85 SH2 domain, the Ki was over 1000 µM and the IC50 was over 300 µM. In addition, at human fyn SH2 domain, the Ki is over 1000 µM and the IC50 was over 300 µM.
Regarding `CCCNC(=O)[C@H]1CC[C@H](CNC(=O)/C=C/c2ccc(C=O)cc2)CC1` [Compound 9, 4-formyl-E-cinnamido-trans-4-methyl-cyclohexyl-N-(propyl) carboxamide], at human p85 SH2 domain, the Ki is over 1000 µM and the IC50 is over 300 µM. Moreover, on human fyn SH2 domain, the Ki was over 1000 µM and the IC50 was over 300 µM.
`Cc1nc2sc3c(c2c2[nH][nH]c(=O)c12)CCCC3` [Compound 10, 2,3,7,8,9,10-Hexahydro-4-methyl-1H-benzo[b]thieno[2,3-b]pyrazolo[3,4-d]pyridin-3-one]: at human p85 SH2 domain, the Ki was over 1000 µM and the IC50 was over 300 µM. On human fyn SH2 domain, the Ki was over 1000 µM and the IC50 is over 300 µM.
